Patent publication US20030004126A1, “Formulations of adenosine A1 agonists” (priority 1999, published 2003)

How the values were obtained:
[1] = test system: Male Random Hooded rats; test: Carrageenan model: carrageenan-induced decrease in weight bearing (allodynia) and paw oedema; format: in vivo; conditions: Compound A orally, dosed with morphine subcutaneously; rat, 3 hours after intraplantar 2% carrageenan; dual channel weight averager
Procedure: (a) Carrageenan Model for 5′-Deoxy-5′-fluoro-N-(tetrahydro-pyran-4-yl)-adenosine (Adenosine A1 Agonist) and Morphine
Male Random Hooded rats (180-220 g) were used. The test compound or vehicle was administered 30 mins before the 2nd test compound or vehicle. The test compounds and vehicles used were: (i) Compound A in 0.25% methyl cellulose and (ii) Morphine was made up in saline. Compound A was administered orally. Morphine was administered subcutaneously. After a further 30 mins 100 ul of 2% carrageenan was injected intraplantar into the left hind paw and the animals were then returned to their cages. Three hours later behavioural testing of the carrageenan-induced decrease in weight on the inflamed left hind paw (% weight on the inflammed left hind paw) and associated oedema was assessed. Weight bearing was measured using the dual channel weight averager and paw oedema was assessed using a plethysmometer. The dual channel weight averager is commercially available and is described in the following abstract: Validation of the dual channel weight averager as an instrument for the measurement of inflammatory pain, N. M. Clayton et al., 1997 British Journal Pharmacol. 120, 219P
Note: In the absense of pain, weight on the hind paws would be evenly distributed, i.e. 50% on each hind paw. […]

[2] = test system: rats; test: Nociceptive study using an algesymeter (normal nociceptive thresholds); format: in vivo; conditions: Compound A in combination with morphine, rat
Procedure: (b) Nociceptive Study for 5′-Deoxy-5′-fluoro-N-(tetrahydro-pyran4-yl)-adenosine (Adenosine A1 Agonist) and morphine
Nociception studies were carried out using an algesymeter (Randal, L et. al ([…]). Arch. Int. Pharmacodyn., 61 409-419. Variations in the rats normal nociceptive thresholds were studied.

SMILES: O[C@@H]1[C@H](O)[C@@H](CF)O[C@H]1n1cnc2c(NC3CCOCC3)ncnc21 [5′-Deoxy-5′-fluoro-N-(tetrahydro-pyran-4-yl)-adenosine]
- effect against the carrageenan-induced decrease in weight bearing [1]: at least an additive effect
- effect on normal nociceptive levels (nociceptive threshold) [2]: significantly increased the normal nociceptive levels of the rat producing at least an additive if not synergistic effect
